Patent publication US8440209B2, “Adhesive for medical applications and means for haemostasis” (Stryker Trauma GmbH, priority 2006, dated 2013)

System: S. aureus ATCC 6538
Test: agar diffusion test according to Burkhardt
Format: cell-based
Conditions: 18+2 hours at 36° C.
Experimental: The agar diffusion test according to Burkhardt (Burkhardt, F. (Hrsg.) Mikrobiologische Diagnostik. Georg-Thieme Verlag Stuttgart, New York 1992, p. 724) was carried out. Mueller-Hinton II-Agar in Stacker Petri dishes (Becton Dickinson Microbiology Systems, Cockeysville, USA) were employed in the test for 15. The strain S. aureus ATCC 6538 was selected as test strain. The initial seed of this test strain was chosen such that after […] of incubation, closely standing, but not confluent, single colonies had developed. After drying of the seeded culture media, the treated collagen non-woven material was applied to the agar surface. After 18+2 hours incubation at 36° C., the inhibition sphere was measured.

**Q.** How did the “Inhibition sphere against S. aureus ATCC 6538” value (Treatment 20%) turn out when Gentamycine was run?
**A.** Its value is 24.

**Q.** What about the “Inhibition sphere against S. aureus ATCC 6538” value (Treatment 40%) of the same substance?
**A.** The value was 38.
